From ChEMBL document CHEMBL5252515, “Discovery of 6-Amino-2-{[(1S)-1-methylbutyl]oxy}-9-[5-(1-piperidinyl)pentyl]-7,9-dihydro-8H-purin-8-one (GSK2245035), a Highly Potent and Selective Intranasal Toll-Like Receptor 7 Agonist for the Treatment of Asthma” (J Med Chem, 2016)
In brackets after ≈: the same amount, converted by molar mass. Activity calls are given as the source filed them. No cut-off for these calls is given here.

Columns and labels:
[1] = Toxicity in female rat assessed as NOAEL after 8 weeks; conditions: in vivo
PBMC [2] = assay: Immunomodulatory activity in human PBMC assessed as reduction in timothy grass induced IL-5 level after 6 days; format: functional, cell-based; conditions: dose 0.01-10000 nM, time 6.0 day
PBMC [3] = assay: Immunomodulatory activity in human PBMC assessed as IFNalpha production incubated for 6 days in presence of allergen timothy grass; format: functional, cell-based; conditions: time 6.0 day
Mus musculus [4] = assay: Increase in IFN-alpha level in BALB/c mouse serum at 0.3 mg/kg, administered intranasally after 2 hrs by ELISA; format: functional, organism-based
[5] = target: Toll-like receptor 3 (Homo sapiens) (UniProt O15455); assay: Agonist activity at TLR3 (unknown origin) expressed in HEK cells upto 50 uM by luciferase reporter assay; format: cell-based
[6] = target: T1, Toll-like receptor 9 (Homo sapiens) (UniProt Q9NR96); assay: Agonist activity at TLR9 (unknown origin) expressed in human HEK cells upto 50 uM by luciferase reporter assay; format: cell-based
T1 sequence (whole entry): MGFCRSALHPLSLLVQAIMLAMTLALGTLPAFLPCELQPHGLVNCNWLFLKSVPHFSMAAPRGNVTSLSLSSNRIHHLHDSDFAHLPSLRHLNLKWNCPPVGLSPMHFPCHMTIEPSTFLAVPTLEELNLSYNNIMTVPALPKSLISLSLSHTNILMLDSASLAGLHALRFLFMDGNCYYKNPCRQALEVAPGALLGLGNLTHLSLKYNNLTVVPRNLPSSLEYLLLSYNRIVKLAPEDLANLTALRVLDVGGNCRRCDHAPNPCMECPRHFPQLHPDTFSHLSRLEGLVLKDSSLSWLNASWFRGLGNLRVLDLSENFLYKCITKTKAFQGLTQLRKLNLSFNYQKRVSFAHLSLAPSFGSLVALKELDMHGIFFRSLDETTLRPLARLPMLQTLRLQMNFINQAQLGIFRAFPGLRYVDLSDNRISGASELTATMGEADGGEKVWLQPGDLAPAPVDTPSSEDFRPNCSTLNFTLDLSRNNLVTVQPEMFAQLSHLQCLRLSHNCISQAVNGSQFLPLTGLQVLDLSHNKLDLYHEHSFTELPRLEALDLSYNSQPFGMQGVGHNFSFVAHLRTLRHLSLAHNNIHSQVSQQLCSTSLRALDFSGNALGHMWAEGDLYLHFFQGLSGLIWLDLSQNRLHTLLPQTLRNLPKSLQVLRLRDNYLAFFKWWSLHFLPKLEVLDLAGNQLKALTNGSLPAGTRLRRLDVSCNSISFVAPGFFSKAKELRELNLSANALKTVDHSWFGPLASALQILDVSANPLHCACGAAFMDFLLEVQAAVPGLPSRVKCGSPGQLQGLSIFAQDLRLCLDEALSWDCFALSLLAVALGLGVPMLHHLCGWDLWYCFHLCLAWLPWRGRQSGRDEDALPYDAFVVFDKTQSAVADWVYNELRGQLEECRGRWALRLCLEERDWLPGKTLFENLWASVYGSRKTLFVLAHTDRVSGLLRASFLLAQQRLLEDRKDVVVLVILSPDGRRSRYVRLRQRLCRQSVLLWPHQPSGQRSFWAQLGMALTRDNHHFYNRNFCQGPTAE

Toll-like receptor 7 [7] = target: T2, Toll-like receptor 7 (Homo sapiens, UniProt Q9NYK1); assay: Agonist activity at TLR7 in human whole blood assessed as induction of IL-12p70 production after 20 hrs by electrochemiluminescence assay; format: tissue-based
T2 sequence (Q9NYK1 whole entry): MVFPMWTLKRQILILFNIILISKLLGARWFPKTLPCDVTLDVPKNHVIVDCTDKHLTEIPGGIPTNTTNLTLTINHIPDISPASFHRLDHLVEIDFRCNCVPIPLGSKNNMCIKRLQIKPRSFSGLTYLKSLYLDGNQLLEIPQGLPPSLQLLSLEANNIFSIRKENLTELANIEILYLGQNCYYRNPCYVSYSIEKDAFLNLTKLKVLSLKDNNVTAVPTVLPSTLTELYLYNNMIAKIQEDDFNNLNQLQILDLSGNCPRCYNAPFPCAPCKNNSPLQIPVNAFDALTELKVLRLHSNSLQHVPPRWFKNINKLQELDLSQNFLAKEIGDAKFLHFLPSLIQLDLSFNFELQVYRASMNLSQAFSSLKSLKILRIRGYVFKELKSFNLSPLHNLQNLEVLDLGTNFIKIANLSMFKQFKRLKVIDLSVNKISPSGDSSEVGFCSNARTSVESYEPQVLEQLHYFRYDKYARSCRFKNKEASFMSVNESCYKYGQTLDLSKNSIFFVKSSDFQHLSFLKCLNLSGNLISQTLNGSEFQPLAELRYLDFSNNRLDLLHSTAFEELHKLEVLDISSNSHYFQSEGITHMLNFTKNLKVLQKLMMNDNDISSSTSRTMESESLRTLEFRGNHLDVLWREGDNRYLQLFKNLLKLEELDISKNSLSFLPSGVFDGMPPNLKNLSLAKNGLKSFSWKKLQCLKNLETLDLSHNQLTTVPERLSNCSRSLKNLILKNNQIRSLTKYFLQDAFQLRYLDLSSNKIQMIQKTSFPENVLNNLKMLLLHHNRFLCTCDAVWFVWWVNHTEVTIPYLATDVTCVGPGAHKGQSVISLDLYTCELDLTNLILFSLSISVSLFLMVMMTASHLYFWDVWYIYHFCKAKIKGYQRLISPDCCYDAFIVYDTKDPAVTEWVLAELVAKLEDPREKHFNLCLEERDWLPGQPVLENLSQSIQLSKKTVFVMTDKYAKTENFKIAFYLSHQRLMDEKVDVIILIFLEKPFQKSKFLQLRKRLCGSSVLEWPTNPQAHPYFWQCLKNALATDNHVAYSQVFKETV

Mus musculus [8] = assay: Increase in IFN-alpha level in intranasally dosed BALB/c mouse nasal lavage after 6 hrs; format: functional, organism-based
[9] = Systemic clearance in rat; format: ADME; conditions: in vivo
Toll-like receptor 7 [10] = target: T2, Toll-like receptor 7; assay: Agonist activity at TLR7 in human whole blood assessed as induction of IL-1beta production after 20 hrs by electrochemiluminescence assay; format: tissue-based
[11] = Solubility of the compound at pH-7; format: physicochemical

Chain of Toll-like receptor 3 (Homo sapiens) (O15455 whole entry): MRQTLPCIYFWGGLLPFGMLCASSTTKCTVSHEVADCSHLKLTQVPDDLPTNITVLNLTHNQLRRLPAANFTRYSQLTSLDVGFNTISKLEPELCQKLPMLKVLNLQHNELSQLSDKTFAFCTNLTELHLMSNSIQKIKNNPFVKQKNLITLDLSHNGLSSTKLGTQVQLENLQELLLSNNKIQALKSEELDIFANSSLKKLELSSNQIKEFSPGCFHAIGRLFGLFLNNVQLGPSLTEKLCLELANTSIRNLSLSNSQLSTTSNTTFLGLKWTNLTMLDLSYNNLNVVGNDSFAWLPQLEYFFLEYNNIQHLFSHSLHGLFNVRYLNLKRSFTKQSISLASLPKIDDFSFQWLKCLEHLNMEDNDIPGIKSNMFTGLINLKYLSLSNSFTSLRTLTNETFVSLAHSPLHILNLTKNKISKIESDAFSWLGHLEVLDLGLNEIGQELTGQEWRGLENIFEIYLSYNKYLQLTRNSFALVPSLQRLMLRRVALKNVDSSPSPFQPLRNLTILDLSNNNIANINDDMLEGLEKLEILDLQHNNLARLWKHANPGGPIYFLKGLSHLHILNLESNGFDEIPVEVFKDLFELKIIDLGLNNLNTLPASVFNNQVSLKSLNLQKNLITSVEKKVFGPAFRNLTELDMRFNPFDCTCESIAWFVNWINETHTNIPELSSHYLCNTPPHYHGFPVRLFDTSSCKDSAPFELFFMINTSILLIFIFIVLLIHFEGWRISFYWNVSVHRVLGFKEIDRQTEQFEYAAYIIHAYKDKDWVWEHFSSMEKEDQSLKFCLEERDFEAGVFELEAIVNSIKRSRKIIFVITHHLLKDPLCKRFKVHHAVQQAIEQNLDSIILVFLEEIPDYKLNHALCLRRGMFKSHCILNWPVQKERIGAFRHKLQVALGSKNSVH

Activity [5]: inactive | Activity [6]: inactive | EC50 (Toll-like receptor 7 [7]): 63.1 nM | clearance [9]: 96 mL/min/kg | EC50 (Toll-like receptor 7 [10]): 5.01 µM | solubility [11]: 11 mg/mL (≈ 28.2 mM)
SMILES: CCC[C@H](C)Oc1nc(N)c2[nH]c(=O)n(CCCCCN3CCCCC3)c2n1 [GSK-2245035]
NOAEL at 1344 h [1]: 0.698 mg/kg | Activity (PBMC [2]): Dose-Dependent Effect | Activity (PBMC [3]): Active | Activity (Mus musculus [4]): Active | Activity (Mus musculus [8]): inactive
